From the NIST ThermoML archive (doi:10.1016/j.fluid.2010.07.005)

How the values were obtained:
[1] = xn = mol fraction of the nth substance listed; details: 101.33 kPa, Liquid; for viscosity: Capillary tube (Ostwald / Ubbelohde) method
[2] = excess molar enthalpy (molar enthalpy of mixing); xn = mol fraction of the nth substance listed; details: 298.15 K, 101.33 kPa, Liquid, Flow calorimetry
[3] = molar heat capacity at constant pressure; xn = mol fraction of the nth substance listed; details: 101.33 kPa, Liquid, Vacuum adiabatic calorimetry

COP(=O)([O-])OC.Cn1cc[n+](C)c1 [1,3-dimethylimidazolium dimethylphosphate] + O
Details | molar heat capacity at constant pressure, 298.15 K [J/K/mol] | molar heat capacity at constant pressure, 303.15 K [J/K/mol] | molar heat capacity at constant pressure, 313.15 K [J/K/mol] | molar heat capacity at constant pressure, 323.15 K [J/K/mol] | viscosity, 298.15 K [mPa·s] | viscosity, 303.15 K [mPa·s] | viscosity, 308.15 K [mPa·s] | viscosity, 313.15 K [mPa·s] | viscosity, 318.15 K [mPa·s] | viscosity, 323.15 K [mPa·s]
[1], x1 = 0.252 | – | – | – | – | 40.02 | 32.61 | 24.46 | 20.28 | 16.97 | 14.5
[1], x1 = 0.428 | – | – | – | – | 74.43 | 55.22 | 43.51 | 35.23 | 27.92 | 23.63
[1], x1 = 0.617 | – | – | – | – | 145.21 | 110.23 | 82.04 | 66.13 | 51.66 | 41.92
[1], x1 = 0.795 | – | – | – | – | 197.92 | 138.81 | 104.59 | 80.27 | 63.01 | 50.35
[1], x1 = 1 | – | – | – | – | 271.86 | 188.3 | 139.49 | 110.25 | 84.44 | 69.99
[3], x1 = 0.21 | 116.48 | 124.21 | 147.96 | 171.34 | – | – | – | – | – | –
[3], x1 = 0.375 | 143.19 | 151.23 | 167.21 | 182.63 | – | – | – | – | – | –
[3], x1 = 0.57 | 197.42 | 205.75 | 220.8 | 232.9 | – | – | – | – | – | –
[3], x1 = 0.821 | 255.8 | 267.68 | 284.76 | 298.31 | – | – | – | – | – | –
[3], x1 = 1 | 282.83 | 296.61 | 310.83 | 321.05 | – | – | – | – | – | –

mass density [kg/m3], [1], Speicific gravity balance
Details | 298.15 K | 303.15 K | 308.15 K | 313.15 K | 318.15 K | 323.15 K
x1 = 0.252 | 1233.4 | 1231 | 1227.9 | 1224 | 1220.8 | 1216.8
x1 = 0.428 | 1241.5 | 1239.4 | 1236.2 | 1233.6 | 1230.5 | 1226.2
x1 = 0.617 | 1248.5 | 1245.8 | 1241.8 | 1239.3 | 1236.1 | 1232.9
x1 = 0.795 | 1253.6 | 1250.5 | 1247.2 | 1243.9 | 1241.1 | 1236.8
x1 = 1 | 1258.7 | 1255.9 | 1253 | 1249.1 | 1245.2 | 1241.5

[2]
Details | excess molar enthalpy [kcal/mol]
x1 = 0.104 | -1.12
x1 = 0.209 | -1.42
x1 = 0.369 | -1.54
x1 = 0.498 | -1.45
x1 = 0.604 | -1.28
x1 = 1 | 0

COP(=O)([O-])OC.Cn1cc[n+](C)c1 [1,3-dimethylimidazolium dimethylphosphate] + CCO
Details | molar heat capacity at constant pressure, 298.15 K [J/K/mol] | molar heat capacity at constant pressure, 303.15 K [J/K/mol] | molar heat capacity at constant pressure, 313.15 K [J/K/mol] | molar heat capacity at constant pressure, 323.15 K [J/K/mol] | viscosity, 298.15 K [mPa·s] | viscosity, 303.15 K [mPa·s] | viscosity, 308.15 K [mPa·s] | viscosity, 313.15 K [mPa·s] | viscosity, 318.15 K [mPa·s] | viscosity, 323.15 K [mPa·s]
[1], x1 = 0.202 | – | – | – | – | 6.83 | 5.98 | 5.3 | 4.83 | 4.32 | 3.94
[1], x1 = 0.414 | – | – | – | – | 22.99 | 19 | 16.21 | 14.15 | 12.35 | 11.03
[1], x1 = 0.562 | – | – | – | – | 48.76 | 38.45 | 30.8 | 26.47 | 22.23 | 19.27
[1], x1 = 0.807 | – | – | – | – | 137.88 | 105.91 | 80.22 | 63.76 | 50.57 | 42.11
[1], x1 = 1 | – | – | – | – | 271.86 | 188.3 | 139.49 | 110.25 | 84.44 | 69.99
[3], x1 = 0.224 | 145.29 | 153.59 | 172.15 | 190.19 | – | – | – | – | – | –
[3], x1 = 0.408 | 193.74 | 205.3 | 227.82 | 247.28 | – | – | – | – | – | –
[3], x1 = 0.596 | 235.91 | 247.99 | 280.92 | 299.34 | – | – | – | – | – | –
[3], x1 = 0.803 | 258.54 | 267.73 | 289.85 | 304.85 | – | – | – | – | – | –
[3], x1 = 1 | 282.83 | 296.61 | 310.83 | 321.05 | – | – | – | – | – | –

mass density [kg/m3], [1], Specific gravity balance
Details | 298.15 K | 303.15 K | 308.15 K | 313.15 K | 318.15 K | 323.15 K
x1 = 0.202 | 1000.6 | 996.6 | 992.7 | 989.7 | 986.9 | 983.2
x1 = 0.414 | 1116.5 | 1113.4 | 1109.8 | 1106.6 | 1103.5 | 1098.4
x1 = 0.562 | 1166.7 | 1163.4 | 1159.7 | 1156.2 | 1152.4 | 1148.5
x1 = 0.807 | 1223.2 | 1219.5 | 1216.8 | 1213.8 | 1211.4 | 1207.5
x1 = 1 | 1258.7 | 1255.9 | 1253 | 1249.1 | 1245.2 | 1241.5

[2]
Details | excess molar enthalpy [kcal/mol]
x1 = 0.177 | -0.329
x1 = 0.307 | -0.481
x1 = 0.524 | -0.485
x1 = 0.665 | -0.377
x1 = 0.8 | -0.241
x1 = 1 | 0

COP(=O)([O-])OC.Cn1cc[n+](C)c1 [1,3-dimethylimidazolium dimethylphosphate] + CO
Details | molar heat capacity at constant pressure, 298.15 K [J/K/mol] | molar heat capacity at constant pressure, 303.15 K [J/K/mol] | molar heat capacity at constant pressure, 313.15 K [J/K/mol] | molar heat capacity at constant pressure, 323.15 K [J/K/mol] | viscosity, 298.15 K [mPa·s] | viscosity, 303.15 K [mPa·s] | viscosity, 308.15 K [mPa·s] | viscosity, 313.15 K [mPa·s] | viscosity, 318.15 K [mPa·s] | viscosity, 323.15 K [mPa·s]
[1], x1 = 0.203 | – | – | – | – | 3.8 | 3.32 | 3.06 | 2.84 | 2.6 | 2.4
[1], x1 = 0.399 | – | – | – | – | 18.33 | 16.56 | 12.43 | 11.08 | 9.76 | 8.79
[1], x1 = 0.603 | – | – | – | – | 53.9 | 38.18 | 31.37 | 25.8 | 22.86 | 18.45
[1], x1 = 0.805 | – | – | – | – | 145.63 | 98.68 | 75.4 | 61.57 | 49.9 | 40.2
[1], x1 = 1 | – | – | – | – | 271.86 | 188.3 | 139.49 | 110.25 | 84.44 | 69.99
[3], x1 = 0.202 | 130.82 | 144.77 | 169.01 | 190.07 | – | – | – | – | – | –
[3], x1 = 0.399 | 177.61 | 191.43 | 214.09 | 233.4 | – | – | – | – | – | –
[3], x1 = 0.591 | 215.46 | 225.28 | 246.8 | 262.54 | – | – | – | – | – | –
[3], x1 = 0.81 | 256.75 | 261.78 | 274.8 | 290.24 | – | – | – | – | – | –
[3], x1 = 1 | 282.83 | 296.61 | 310.83 | 321.05 | – | – | – | – | – | –

mass density [kg/m3], [1], Specific gravity balance
Details | 298.15 K | 303.15 K | 308.15 K | 313.15 K | 318.15 K | 323.15 K
x1 = 0.203 | 1040.2 | 1037.1 | 1033.2 | 1030.2 | 1027.6 | 1025.1
x1 = 0.399 | 1158.3 | 1155.2 | 1151.2 | 1148.1 | 1147 | 1140.1
x1 = 0.603 | 1205.5 | 1201.4 | 1197.8 | 1194.1 | 1190.8 | 1188
x1 = 0.805 | 1236.4 | 1233 | 1229.7 | 1226.4 | 1223.1 | 1219.8
x1 = 1 | 1258.7 | 1255.9 | 1253 | 1249.1 | 1245.2 | 1241.5

[2]
Details | excess molar enthalpy [kcal/mol]
x1 = 0.165 | -0.539
x1 = 0.28 | -0.779
x1 = 0.466 | -0.783
x1 = 0.593 | -0.687
x1 = 0.744 | -0.475
x1 = 1 | 0
